# Reference: US20230263822A1, “MODULATION OF FACTOR 11 EXPRESSION” (Ionis Pharmaceuticals, Inc., priority 2008, published 2023)
# Strand notation (5' to 3'): a small letter for the sugar, then the base; units joined by * are phosphorothioate-linked, units joined directly phosphodiester-linked; [ ] holds rarer units or linkages, { } end groups; capitals alone tell only the bases. e = 2'-O-(2-methoxyethyl) (MOE); [5mC] = 5-methylcytosine; d = 2'-deoxy (DNA)
# Key:
# [1] = Liver function, ALT, AST, bilirubin in cynomolgus monkeys (Example 46); assay type: in vivo; conditions: plasma
# Protocol: (§1) Groups, each consisting of two male and two female monkeys, were injected subcutaneously with 25 mg/kg of ISIS 416850, ISIS 449709, ISIS 445522, ISIS 449710, ISIS 449707, ISIS 449711, ISIS 449708, 416858, and ISIS 445531. Antisense oligonucleotide was administered to the monkeys at 25 mg/kg three times per week for week 1 and 25 mg/kg twice per week for weeks 2 to 8. A control group, consisting of two male and two female monkeys was injected subcutaneously with PBS according to the same dosing regimen. Body weights were taken 14 days and 7 days before the start of treatment and were then measured weekly throughout the treatment period. Blood samples were collected 14 days and 5 days before the start of treatment and subsequently several times during the dosing regimen for PT and aPTT measurements, and measurement of various hematologic factors. On day 55, the monkeys were euthanized by exsanguination while under deep anesthesia, and organs harvested for further analysis.
# Plasma concentrations of alanine transaminase (ALT) and aspartate transaminase (AST) were measured and the results are presented in Tables 152 and 153 expressed in IU/L. Plasma levels of bilirubin were also measured and results are presented in Table 154 expressed in mg/dL. As observed in Tables 152-154, there were no significant increases in any of the liver metabolic markers after antisense oligonucleotide treatment.
# blood coagulation = assay: PT and aPTT assay in cynomolgus monkeys (Example 46); assay type: in vivo; conditions: for PT ratio (INR) / aPTT ratio relative to PBS group: platelet poor plasma, relative to PBS group
# Protocol: as §1
# PT and aPTT were measured using platelet poor plasma (PPP) from […] treated with ISIS oligonucleotides. PT and aPTT values are provided in Tables 148 and 149 and are reported as International Normalized Ratio (INR) values. INR values for PT and aPTT were determined by dividing the PT or aPTT value for each experimental group by the PT or aPTT for the PBS treated group. This ratio was then raised to the power of the International Sensitivity Index (ISI) of the tissue factor used. […] Therefore, antisense reduction of Factor 11 with these ISIS oligonucleotides is useful for inhibiting the formation of a thrombus or clot in response to an abnormal vessel wall, but not in response to tissue injury.
Substance,ALT ([1]; Day 31) [IU/L],AST ([1]; Day 31) [IU/L],Bilirubin ([1]; Day 31) [mg/dL],ALT ([1]; Day 55) [IU/L],AST ([1]; Day 55) [IU/L],Bilirubin ([1]; Day 55) [mg/dL],ALT ([1]; Day −5) [IU/L],AST ([1]; Day −5) [IU/L],Bilirubin ([1]; Day −5) [mg/dL],ALT ([1]; Day −14) [IU/L],AST ([1]; Day −14) [IU/L],Bilirubin ([1]; Day −14) [mg/dL],PT ratio (INR) (blood coagulation; Day 10),aPTT ratio relative to PBS group (blood coagulation; Day 10),PT ratio (INR) (blood coagulation; Day 17),aPTT ratio relative to PBS group (blood coagulation; Day 17),PT ratio (INR) (blood coagulation; Day 24),aPTT ratio relative to PBS group (blood coagulation; Day 24),PT ratio (INR) (blood coagulation; Day 31),aPTT ratio relative to PBS group (blood coagulation; Day 31),also measured
ISIS 445522: 5-8-5 or 6-8-6 MOE microwalk gapmer (Table 44) (antisense eG*e[5mC]*eA*e[5mC]*eA*dG*dT*dT*dT*d[5mC]*dT*dG*dG*e[5mC]*eA*eG*eG*e[5mC]),40,46,0.14,60,79,0.18,45,47,0.20,43,62,0.24,0.95,1.06,0.96,1.10,0.94,1.14,0.96,1.25,"PT ratio (INR) (blood coagulation; Day 38): 0.97; aPTT ratio relative to PBS group (blood coagulation; Day 38): 1.32; PT ratio (INR) (blood coagulation; Day 45): 0.96; aPTT ratio relative to PBS group (blood coagulation; Day 45): 1.39; PT ratio (INR) (blood coagulation; Day 52): 0.98; aPTT ratio relative to PBS group (blood coagulation; Day 52): 1.39; PT ratio (INR) (blood coagulation; Day 55): 1.01; aPTT ratio relative to PBS group (blood coagulation; Day 55): 1.42; PT ratio (INR) (blood coagulation; Day −5): 0.94; aPTT ratio relative to PBS group (blood coagulation; Day −5): 0.91; PT ratio (INR) (blood coagulation; Day −14): 1.00; aPTT ratio relative to PBS group (blood coagulation; Day −14): 0.96; aPTT (blood coagulation; cynomolgus monkeys, 25 mg/kg): significantly prolonged"
ISIS 445531: 5-8-5 or 6-8-6 MOE microwalk gapmer (Table 44) (antisense eG*eG*e[5mC]*eA*eT*dT*dG*dG*dT*dG*d[5mC]*dA*d[5mC]*eA*eG*eT*eT*eT),57,47,0.13,73,49,0.11,73,46,0.18,84,78,0.22,1.00,0.95,1.06,1.05,1.02,1.00,1.04,1.07,PT ratio (INR) (blood coagulation; Day 38): 1.03; aPTT ratio relative to PBS group (blood coagulation; Day 38): 1.06; PT ratio (INR) (blood coagulation; Day 45): 1.01; aPTT ratio relative to PBS group (blood coagulation; Day 45): 1.13; PT ratio (INR) (blood coagulation; Day 52): 1.04; aPTT ratio relative to PBS group (blood coagulation; Day 52): 1.15; PT ratio (INR) (blood coagulation; Day 55): 1.06; aPTT ratio relative to PBS group (blood coagulation; Day 55): 1.19; PT ratio (INR) (blood coagulation; Day −5): 1.00; aPTT ratio relative to PBS group (blood coagulation; Day −5): 0.89; PT ratio (INR) (blood coagulation; Day −14): 1.06; aPTT ratio relative to PBS group (blood coagulation; Day −14): 1.00
"ISIS 449707: 3-8-3, 4-8-4, 2-10-2, 3-10-3 or 4-10-4 MOE microwalk gapmer (Table 46) (antisense e[5mC]*eA*e[5mC]*eA*dG*dT*dT*dT*d[5mC]*dT*dG*dG*e[5mC]*eA*eG*eG)",52,50,0.13,63,52,0.16,56,53,0.19,54,64,0.27,0.95,0.92,0.97,0.94,0.95,0.93,0.96,0.95,PT ratio (INR) (blood coagulation; Day 38): 1.00; aPTT ratio relative to PBS group (blood coagulation; Day 38): 0.99; PT ratio (INR) (blood coagulation; Day 45): 0.96; aPTT ratio relative to PBS group (blood coagulation; Day 45): 1.00; PT ratio (INR) (blood coagulation; Day 52): 0.96; aPTT ratio relative to PBS group (blood coagulation; Day 52): 0.99; PT ratio (INR) (blood coagulation; Day 55): 1.00; aPTT ratio relative to PBS group (blood coagulation; Day 55): 1.04; PT ratio (INR) (blood coagulation; Day −5): 0.94; aPTT ratio relative to PBS group (blood coagulation; Day −5): 0.87; PT ratio (INR) (blood coagulation; Day −14): 1.01; aPTT ratio relative to PBS group (blood coagulation; Day −14): 0.90
"ISIS 449708: 3-8-3, 4-8-4, 2-10-2, 3-10-3 or 4-10-4 MOE microwalk gapmer (Table 46) (antisense eA*e[5mC]*eA*dG*dT*dT*dT*d[5mC]*dT*dG*dG*e[5mC]*eA*eG)",44,56,0.14,46,50,0.14,54,53,0.21,48,74,0.27,0.98,1.06,1.00,1.05,0.95,1.01,1.06,1.09,PT ratio (INR) (blood coagulation; Day 38): 0.99; aPTT ratio relative to PBS group (blood coagulation; Day 38): 1.06; PT ratio (INR) (blood coagulation; Day 45): 0.99; aPTT ratio relative to PBS group (blood coagulation; Day 45): 1.06; PT ratio (INR) (blood coagulation; Day 52): 0.99; aPTT ratio relative to PBS group (blood coagulation; Day 52): 1.08; PT ratio (INR) (blood coagulation; Day 55): 1.04; aPTT ratio relative to PBS group (blood coagulation; Day 55): 1.11; PT ratio (INR) (blood coagulation; Day −5): 0.95; aPTT ratio relative to PBS group (blood coagulation; Day −5): 1.01; PT ratio (INR) (blood coagulation; Day −14): 1.03; aPTT ratio relative to PBS group (blood coagulation; Day −14): 1.07
"ISIS 449709: 3-8-3, 4-8-4, 2-10-2, 3-10-3 or 4-10-4 MOE microwalk gapmer (Table 46) (antisense eG*e[5mC]*eA*e[5mC]*dA*dG*dT*dT*dT*d[5mC]*dT*dG*dG*d[5mC]*eA*eG*eG*e[5mC])",65,45,0.15,102,71,0.18,77,51,0.19,73,62,0.24,0.95,0.99,0.95,1.03,0.95,1.05,0.95,1.08,PT ratio (INR) (blood coagulation; Day 38): 0.97; aPTT ratio relative to PBS group (blood coagulation; Day 38): 1.08; PT ratio (INR) (blood coagulation; Day 45): 0.97; aPTT ratio relative to PBS group (blood coagulation; Day 45): 1.15; PT ratio (INR) (blood coagulation; Day 52): 0.99; aPTT ratio relative to PBS group (blood coagulation; Day 52): 1.09; PT ratio (INR) (blood coagulation; Day 55): 1.03; aPTT ratio relative to PBS group (blood coagulation; Day 55): 1.17; PT ratio (INR) (blood coagulation; Day −5): 0.96; aPTT ratio relative to PBS group (blood coagulation; Day −5): 0.91; PT ratio (INR) (blood coagulation; Day −14): 1.00; aPTT ratio relative to PBS group (blood coagulation; Day −14): 0.99
"ISIS 449710: 3-8-3, 4-8-4, 2-10-2, 3-10-3 or 4-10-4 MOE microwalk gapmer (Table 46) (antisense e[5mC]*eA*e[5mC]*dA*dG*dT*dT*dT*d[5mC]*dT*dG*dG*d[5mC]*eA*eG*eG)",37,37,0.15,45,64,0.22,42,38,0.19,37,52,0.24,0.98,1.00,1.00,0.97,0.97,1.00,0.98,1.04,PT ratio (INR) (blood coagulation; Day 38): 0.99; aPTT ratio relative to PBS group (blood coagulation; Day 38): 1.02; PT ratio (INR) (blood coagulation; Day 45): 0.97; aPTT ratio relative to PBS group (blood coagulation; Day 45): 1.06; PT ratio (INR) (blood coagulation; Day 52): 0.98; aPTT ratio relative to PBS group (blood coagulation; Day 52): 1.03; PT ratio (INR) (blood coagulation; Day 55): 1.06; aPTT ratio relative to PBS group (blood coagulation; Day 55): 1.07; PT ratio (INR) (blood coagulation; Day −5): 0.96; aPTT ratio relative to PBS group (blood coagulation; Day −5): 0.98; PT ratio (INR) (blood coagulation; Day −14): 1.03; aPTT ratio relative to PBS group (blood coagulation; Day −14): 1.07
